Series [1] concerns human lung cancer NCI-H460 cell line. Briefly: MTT cytotoxicity assay, lung cancer NCI-H460 cell line. In kind it is cell-based. To be noted: Homo sapiens, NCI-H460, 72 h, mean ± SD. The method, then:
(§1) Human cancer cell lines (lung cancer NCI-H460 cell line, pancreatic cancer BxPC-3 cell line, colon cancer HT-29 cell line) were purchased from American Type Cell Culture Collection (ATCC, Manassas, VA, USA). Cells were maintained in RPMI-1640 medium supplemented with 10% (v/v) heat-inactivated fetal bovine serum, penicillin-streptomycin (100 U/mL-100 […]) at 37 °C in a humidified atmosphere (5% CO2–95% air). All tested derivatives were dissolved in 100% cell culture grade DMSO. Cells (3 × 10^3 per well) were seeded in 96-well plates for 24 h. Then, cells were treated with the tested compounds in six concentrations for 72 h. Cell viability was assessed by MTT assay. The absorbance at 490 nm was measured with a Microplate Reader (Molecular Devices, Silicon Valley, CA, USA). The data were analyzed by Origin 8.5 (OriginLab, Northampton, MA, USA).

The subject of series [2] is pancreatic cancer BxPC-3 cell line. Briefly: MTT cytotoxicity assay, pancreatic cancer BxPC-3 cell line. In kind it is cell-based. Conditions: Homo sapiens, 72 h, mean ± SD. The method, then:
as §1

Series [3] concerns colon cancer HT-29 cell line. Briefly: MTT cytotoxicity assay, colon cancer HT-29 cell line. It counts as cell-based. Conditions: Homo sapiens, 72 h, mean ± SD. The method, then:
as §1

For series [4], the system named is microtubules in NCI-H460 cells. Briefly: Immunofluorescence assay of microtubules (β-tubulin/DAPI staining). To be noted: 2 nM, 24 h. In kind it is cell-based, human. On the procedure: To further explore the effect of phenylahistin derivatives 1 and 15p on microtubules in cancer cells, an immunofluorescence assay was performed. […] The inhibitory activities were consistent with the previously shown anti-proliferative activities.
NCI-H460 cells were seeded in 24-well plate (with coverslips plated) at the density of 5 × 10^4 cells. […] Then, cells were fixed with 4% cold paraformaldehyde at 4 °C for 15 min and then permeabilized in 0.05% Triton X-100 for 10 min. The cells were blocked in 1% BSA for 30 min. Microtubules were detected by incubation with a monoclonal anti-β-tubulin (β-tubulin antibody was obtained from Servicebio, Wuhan, China.) at 4 °C for 12 h. Subsequently, the cells were washed with PBS and incubated with a FITC-conjugated anti-mouse IgG antibody. Nuclei were stained with DAPI (G1012, Servicebio, Wuhan, China). The coverslips were visualized under fluorescence microscope (Nikon Eclipse C1, Nikon, Japan) and an image-forming system (Nikon DS-U3, Nikon, Tokyo, Japan).

Another series relates to caspase-3. Briefly: Western blotting of caspase-3 expression. In kind it is cell-based. On the procedure:
Western blot was performed as previously described with antibody caspase-3 (1:1000) (WB0177/WB0176) or GAPDH (1:3000) (WB0197/WB0196, Shanghai Wei-Ao Biotechnology Co., Shanghai, China). Densities of the Western blotting bands were quantified using ImageJ 19.0. (NIH, Bethesda, MD, USA).

Series [5] in a line: Plasma stability in vitro. In kind it is in vitro ADME, wistar rats. To be noted: 10 μmol/L, 37 °C, up to 120 min. On the procedure:
Compounds 15p. 15p were weighed and dissolved in DMSO to prepare a master batch with a concentration of 1 mg/mL. The plasma was obtained from wistar male rats, and stored at −20 °C for pending use. The 10 μmol/L of the sample solution to be tested was vortexed and mixed, and rapidly incubated in a 37 °C water bath shaker. The 100 μL of the incubation system was removed at 0 min, 5 min, 10 min, 20 min, 40 min, 60 min, 90 min, and 120 min of the reaction, respectively. The remaining amount of compound was detected (note: each sample was operated three times in parallel). The concentrations of the samples to be measured (15p) in rat plasma were detected by HPLC-MS/MS, and the experimental data were processed and plotted using the computer programs Microsoft Excel (Microsoft 97–2003, Redmond, Washington, DC, USA) and Origin 8.5 (OriginLab, Northampton, MA, USA).

Series [6] can be described thus: Stability of liver microsomal metabolism. To be noted: 37 °C. In kind it is in vitro ADME, rat. On the procedure:
The total volume of the incubation system is 1 mL, which contains 1 mmol/L NADPH, 0.5 mg/mL rat liver microsomes, 1 μmol/L 15p standard solution, which was supplemented with K2HPO4 buffer to 1 mL. The solution should be added to the incubation system. The incubation system was rapidly incubated in a water bath shaker at 37 °C for 5 min before adding 200 μL of 5 mmol/L NADPH. The 50 μL of the incubation system was quickly removed at 0, 5, 10, 20, 40, 60, 90, 120, 150, 210, and 270 min. The concentrations of the samples to be measured (15p) in rat liver microsomes were measured by HPLC-MS/MS. Each sample was operated on three times in parallel. The experimental data were processed and plotted using the computer programs Microsoft Excel (97–2003) and Origin 7.5 software.

`C=CCn1cnc(/C=c2\[nH]c(=O)/c(=C/c3cccc(C(=O)c4ccc(F)cc4)c3)[nH]c2=O)c1C(C)C` [15p]: the melting point is 200 to 202 °C. Moreover, in series [1], the IC50 amounted to 1.03 ± 0.18 nM. This compound displayed an IC50 in series [2] of 0.81 ± 0.02 nM. Further, the IC50 in series [3] is 0.67 ± 0.064 nM. Besides, the “Effect on microtubule networks” value in series [4] is given as “microtubule networks were damaged”. Besides, in the series with caspase-3, the “Expression of caspase-3 vs control group and plinabulin group” value is reported as “significantly higher”. Besides, in the series on caspase-3 (10 nM), the “Upregulation of caspase-3” value is “strongest upregulation of caspase-3”. Also, the Plasma stability entry in series [5] is “very stable”. Also, in series [6] (NADPH), the “Clearance by liver microsomes” value was “quickly cleared by liver microsomes”. In series [6] (Wistar, rat, rat liver microsomes, rat liver microsomes 0.5 mg/mL, 1 μmol/L), this compound came in with a Total clearance (CL) at 1 μmol/L of 80.6 mL/min/kg. Also, in series [6] (Wistar, rat, rat liver microsomes, rat liver microsomes 0.5 mg/mL, 1 μmol/L, read-out: CLint (intrinsic clearance)), the CLint scaled at 1 μmol/L was 772 mL/min/kg. This compound registered a half-life at 1 μmol/L in series [6] (Wistar, rat liver microsomes 0.5 mg/mL, 1 μmol/L) of 7.07 min.
